Measurements reported in patent US20240287065A1, “COMPOUND AS CDK KINASE INHIBITOR AND USE THEREOF” (TYK MEDICINES (ZHENGZHOU) , INC., priority 2021, published 2024).

Molecular target: CDK6/CycD1 (Homo sapiens, UniProt Q00534)
Experiment: Enzyme activity test
Assay type: biochemical
Conditions: not given
Method: (§1) • 1. The test compounds and pabocinib were configured into a […] solution of DMSO; • 2. 20 nL of stock solution was transferred to a 384-well plate using Echo550. DMSO was used as a blank control.
(§2) • 1. according to the following table to prepare 1.3X enzyme solution containing enzyme, substrate and cofactor; • 2. 15 μL of 1.3X enzyme solution was added to each well and the mixture was incubated for 30 min at room temperature; • 3. 5 μL of ATP solution was added to initiate the reaction. The final volume of each well was 20 μL; • 4. After incubation for 150 min at room temperature, 75 μL of termination buffer solution was added to terminate the experiment; • 5. The samples were analyzed using EZ reader.
(§3) The % inhibition was calculated using the following equation
(§4) The one treated with DMSO is the positive control (PC)
(§5) The one without enzyme is the negative control (NC)
(§6) % Inhibition=100-100*((CRPC−CRsample)/(CRPC−CRNC))

CDK6/CycD1, sequence (Q00534 whole entry, species assumed): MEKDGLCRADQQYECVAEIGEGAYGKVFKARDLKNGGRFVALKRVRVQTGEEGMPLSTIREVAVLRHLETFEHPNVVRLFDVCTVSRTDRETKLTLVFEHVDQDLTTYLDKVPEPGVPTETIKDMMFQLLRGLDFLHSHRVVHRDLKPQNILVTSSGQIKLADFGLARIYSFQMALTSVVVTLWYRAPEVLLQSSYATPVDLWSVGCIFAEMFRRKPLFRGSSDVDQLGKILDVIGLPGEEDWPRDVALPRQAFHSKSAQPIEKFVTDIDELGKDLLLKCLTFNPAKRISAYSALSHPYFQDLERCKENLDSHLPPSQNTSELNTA
CDK6/CycD1, sequence (P24385 whole entry partner, species assumed): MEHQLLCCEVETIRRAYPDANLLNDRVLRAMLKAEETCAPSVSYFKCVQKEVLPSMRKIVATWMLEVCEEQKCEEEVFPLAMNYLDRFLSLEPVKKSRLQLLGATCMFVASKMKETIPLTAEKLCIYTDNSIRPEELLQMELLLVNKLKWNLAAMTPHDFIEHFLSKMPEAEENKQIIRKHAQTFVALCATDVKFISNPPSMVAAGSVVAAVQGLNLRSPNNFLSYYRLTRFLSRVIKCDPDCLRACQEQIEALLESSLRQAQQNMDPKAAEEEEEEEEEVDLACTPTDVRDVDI

Row | SMILES | IC50 [nM]
1 | CN(C)c1ccc(S(=O)(=O)N2CCC(Nc3ncc4cc(OC(F)F)c(=O)n([C@@H]5CCC[C@@]5(C)O)c4n3)CC2)cc1 [Example 22] | < 10
2 | C[C@@]1(O)CCC[C@H]1n1c(=O)c(OC(F)F)cc2cnc(NC3CCN(S(=O)(=O)c4cccc(F)c4)CC3)nc21 [Example 17] | < 10
3 | C[C@@]1(O)CCC[C@H]1n1c(=O)c(OC(F)F)cc2cnc(NC3CCN(S(=O)(=O)c4ccc(C(F)(F)F)cc4)CC3)nc21 [Example 5] | < 10
4 | C[C@@]1(O)CCC[C@H]1n1c(=O)c(OC(F)F)cc2cnc(NC3CCN(S(=O)(=O)c4ccc(F)c(F)c4)CC3)nc21 [Example 18] | < 10
5 | C[C@@]1(O)CCC[C@H]1n1c(=O)c(OC(F)F)cc2cnc(NC3CCN(S(=O)(=O)c4ccc(C#N)cc4)CC3)nc21 [Example 6] | < 10

Molecular target: CDK2/CycE1 (Homo sapiens, UniProt P24941)
Experiment: Enzyme activity test
Assay type: biochemical
Conditions: not given
Method: as §1, §2, §3, §4, §5, §6

Row | SMILES | IC50 [nM]
6 | CN(C)c1ccc(S(=O)(=O)N2CCC(Nc3ncc4cc(OC(F)F)c(=O)n([C@@H]5CCC[C@@]5(C)O)c4n3)CC2)cc1 [Example 22] | < 10
7 | C[C@@]1(O)CCC[C@H]1n1c(=O)c(OC(F)F)cc2cnc(NC3CCN(S(=O)(=O)c4cccc(F)c4)CC3)nc21 [Example 17] | < 10
8 | C[C@@]1(O)CCC[C@H]1n1c(=O)c(OC(F)F)cc2cnc(NC3CCN(S(=O)(=O)c4ccc(C(F)(F)F)cc4)CC3)nc21 [Example 5] | < 10
9 | C[C@@]1(O)CCC[C@H]1n1c(=O)c(OC(F)F)cc2cnc(NC3CCN(S(=O)(=O)c4ccc(F)c(F)c4)CC3)nc21 [Example 18] | < 10
10 | C[C@@]1(O)CCC[C@H]1n1c(=O)c(OC(F)F)cc2cnc(NC3CCN(S(=O)(=O)c4ccc(C#N)cc4)CC3)nc21 [Example 6] | < 10

Molecular target: CDK4/CycD3 (Homo sapiens, UniProt P11802)
Sequence (P11802 whole entry, species assumed): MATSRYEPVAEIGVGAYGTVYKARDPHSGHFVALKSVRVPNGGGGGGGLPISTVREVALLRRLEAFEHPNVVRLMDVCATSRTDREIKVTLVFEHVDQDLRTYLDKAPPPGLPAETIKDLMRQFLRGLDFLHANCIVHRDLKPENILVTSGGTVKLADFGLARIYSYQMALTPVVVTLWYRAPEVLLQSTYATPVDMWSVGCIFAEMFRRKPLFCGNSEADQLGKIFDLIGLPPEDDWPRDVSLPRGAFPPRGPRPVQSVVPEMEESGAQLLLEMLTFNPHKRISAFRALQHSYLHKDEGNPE
Sequence (P30281 whole entry partner, species assumed): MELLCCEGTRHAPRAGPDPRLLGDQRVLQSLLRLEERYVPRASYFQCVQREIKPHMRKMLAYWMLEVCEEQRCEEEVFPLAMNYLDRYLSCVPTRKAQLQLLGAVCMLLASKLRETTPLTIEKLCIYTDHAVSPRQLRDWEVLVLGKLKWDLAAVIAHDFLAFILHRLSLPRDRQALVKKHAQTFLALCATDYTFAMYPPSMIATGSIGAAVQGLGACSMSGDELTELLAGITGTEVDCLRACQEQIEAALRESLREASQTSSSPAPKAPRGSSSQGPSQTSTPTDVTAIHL
Experiment: Enzyme activity test
Assay type: biochemical
Conditions: not given
Method: as §1, §2, §3, §4, §5, §6

Row | SMILES | IC50 [nM]
11 | CN(C)c1ccc(S(=O)(=O)N2CCC(Nc3ncc4cc(OC(F)F)c(=O)n([C@@H]5CCC[C@@]5(C)O)c4n3)CC2)cc1 [Example 22] | 10 to 100
12 | C[C@@]1(O)CCC[C@H]1n1c(=O)c(OC(F)F)cc2cnc(NC3CCN(S(=O)(=O)c4cccc(F)c4)CC3)nc21 [Example 17] | < 10
13 | C[C@@]1(O)CCC[C@H]1n1c(=O)c(OC(F)F)cc2cnc(NC3CCN(S(=O)(=O)c4ccc(C(F)(F)F)cc4)CC3)nc21 [Example 5] | 10 to 100
14 | C[C@@]1(O)CCC[C@H]1n1c(=O)c(OC(F)F)cc2cnc(NC3CCN(S(=O)(=O)c4ccc(F)c(F)c4)CC3)nc21 [Example 18] | < 10
15 | C[C@@]1(O)CCC[C@H]1n1c(=O)c(OC(F)F)cc2cnc(NC3CCN(S(=O)(=O)c4ccc(C#N)cc4)CC3)nc21 [Example 6] | < 10

Tested on: OVCAR3 cells
Experiment: Cell proliferation inhibition assay (MTT, 7 days)
Assay type: cell-based
Conditions: Homo sapiens, OVCAR-3, 168 h, 7 days incubation
Method: (§7) MCF7, T47D, OVCAR3 and HCC1806 cells were inoculated in 96-well plates at 3000, 3000, 2500, and 2000 cells/well, respectively, and cultured overnight at 37° C., 5% C02 incubator.
(§8) 1. […] Then 2.5 μl of the stock solution was dissolved in 497.5 μl of DMSO-free medium, and then a 3-fold serial gradient dilution was performed with 0.1% DMSO medium for a total of 9 concentrations, and the concentrations of the compounds after dilution were as follows: • 10000 nM, 3333.33 nM, 1111.11 nM, 370.34 nM, 123.45 nM, 41.15 nM, 13.72 nM, 4.57 nM, and 1.52 nM. • b) After fully mixing, 20 μL of compound solutions were added into cell culture plates containing 80 μL of cells respectively, with 4 replicate wells for each concentration. • c) The cells were transferred to an incubator and incubated for 7 days, and exchanged with fresh culture medium containing the same concentration of compounds when incubated to day 4. 2. MTT assay • a) The cell culture plate was taken out and 10 μL of 5 mg/ml MTT was added to the hood. • b) The cell culture plate was put back into the incubator and continued to incubate for 3 hours. • c) The cell culture plate was taken out to remove the culture medium, and 100 μL of isopropanol (0.4 mMHCl, 0.4% NP40) was added to the plate, and the plate was shaken on a shaker at room temperature for 30 minutes and read at 570 nm. 3. Data analysis
(§9) The survival rate (% Cell Survival) was calculated using the following equation:
(§10) % Cell Survival=100%×(OD_Sample−OD_LCave)/(OD_HC−OD_LCave) • OD_HC: 0.1‰ cell readings of DMSO control • OD_Sample: cell readings of compound addition • OD_LC: readings of blank medium • Analyed by Prizm: Dose-response-Inhibition Log(inhibitor) vs response (three parameters for the best fit)
(§11) IC50 (nM) values were calculated by concentration-response curve fitting.

Row | SMILES | IC50 [nM]
16 | CN(C)c1ccc(S(=O)(=O)N2CCC(Nc3ncc4cc(OC(F)F)c(=O)n([C@@H]5CCC[C@@]5(C)O)c4n3)CC2)cc1 [Example 22] | ≤ 50
17 | C[C@@]1(O)CCC[C@H]1n1c(=O)c(OC(F)F)cc2cnc(NC3CCN(S(=O)(=O)c4cccc(F)c4)CC3)nc21 [Example 17] | ≤ 50
18 | C[C@@]1(O)CCC[C@H]1n1c(=O)c(OC(F)F)cc2cnc(NC3CCN(S(=O)(=O)c4ccc(C(F)(F)F)cc4)CC3)nc21 [Example 5] | 50 to 5200
19 | C[C@@]1(O)CCC[C@H]1n1c(=O)c(OC(F)F)cc2cnc(NC3CCN(S(=O)(=O)c4ccc(F)c(F)c4)CC3)nc21 [Example 18] | ≤ 50
20 | C[C@@]1(O)CCC[C@H]1n1c(=O)c(OC(F)F)cc2cnc(NC3CCN(S(=O)(=O)c4ccc(C#N)cc4)CC3)nc21 [Example 6] | ≤ 50

Tested on: T47D cells
Experiment: Cell proliferation inhibition assay (MTT, 7 days)
Assay type: cell-based
Conditions: Homo sapiens, 168 h, 7 days incubation
Method: as §7, §8, §9, §10, §11

Row | SMILES | IC50 [nM]
21 | CN(C)c1ccc(S(=O)(=O)N2CCC(Nc3ncc4cc(OC(F)F)c(=O)n([C@@H]5CCC[C@@]5(C)O)c4n3)CC2)cc1 [Example 22] | ≤ 50
22 | C[C@@]1(O)CCC[C@H]1n1c(=O)c(OC(F)F)cc2cnc(NC3CCN(S(=O)(=O)c4cccc(F)c4)CC3)nc21 [Example 17] | ≤ 50
23 | C[C@@]1(O)CCC[C@H]1n1c(=O)c(OC(F)F)cc2cnc(NC3CCN(S(=O)(=O)c4ccc(C(F)(F)F)cc4)CC3)nc21 [Example 5] | ≤ 50
24 | C[C@@]1(O)CCC[C@H]1n1c(=O)c(OC(F)F)cc2cnc(NC3CCN(S(=O)(=O)c4ccc(F)c(F)c4)CC3)nc21 [Example 18] | ≤ 50
25 | C[C@@]1(O)CCC[C@H]1n1c(=O)c(OC(F)F)cc2cnc(NC3CCN(S(=O)(=O)c4ccc(C#N)cc4)CC3)nc21 [Example 6] | ≤ 50

Tested on: MCF7 cells
Experiment: Cell proliferation inhibition assay (MTT, 7 days)
Assay type: cell-based
Conditions: Homo sapiens, 168 h, 7 days incubation
Method: as §7, §8, §9, §10, §11

Row | SMILES | IC50 [nM]
26 | CN(C)c1ccc(S(=O)(=O)N2CCC(Nc3ncc4cc(OC(F)F)c(=O)n([C@@H]5CCC[C@@]5(C)O)c4n3)CC2)cc1 [Example 22] | 50 to 5200
27 | C[C@@]1(O)CCC[C@H]1n1c(=O)c(OC(F)F)cc2cnc(NC3CCN(S(=O)(=O)c4cccc(F)c4)CC3)nc21 [Example 17] | ≤ 50
28 | C[C@@]1(O)CCC[C@H]1n1c(=O)c(OC(F)F)cc2cnc(NC3CCN(S(=O)(=O)c4ccc(C(F)(F)F)cc4)CC3)nc21 [Example 5] | 50 to 5200
29 | C[C@@]1(O)CCC[C@H]1n1c(=O)c(OC(F)F)cc2cnc(NC3CCN(S(=O)(=O)c4ccc(F)c(F)c4)CC3)nc21 [Example 18] | 50 to 5200
30 | C[C@@]1(O)CCC[C@H]1n1c(=O)c(OC(F)F)cc2cnc(NC3CCN(S(=O)(=O)c4ccc(C#N)cc4)CC3)nc21 [Example 6] | ≤ 50

Tested on: HCC1806 cells
Experiment: Cell proliferation inhibition assay (MTT, 7 days)
Assay type: cell-based
Conditions: Homo sapiens, HCC1806, 168 h, HCC1086 [sic], 7 days incubation
Method: as §7, §8, §9, §10, §11

Row | SMILES | IC50 [nM]
31 | CN(C)c1ccc(S(=O)(=O)N2CCC(Nc3ncc4cc(OC(F)F)c(=O)n([C@@H]5CCC[C@@]5(C)O)c4n3)CC2)cc1 [Example 22] | 50 to 5200
32 | C[C@@]1(O)CCC[C@H]1n1c(=O)c(OC(F)F)cc2cnc(NC3CCN(S(=O)(=O)c4cccc(F)c4)CC3)nc21 [Example 17] | ≤ 50
33 | C[C@@]1(O)CCC[C@H]1n1c(=O)c(OC(F)F)cc2cnc(NC3CCN(S(=O)(=O)c4ccc(C(F)(F)F)cc4)CC3)nc21 [Example 5] | 50 to 5200
34 | C[C@@]1(O)CCC[C@H]1n1c(=O)c(OC(F)F)cc2cnc(NC3CCN(S(=O)(=O)c4ccc(F)c(F)c4)CC3)nc21 [Example 18] | ≤ 50
35 | C[C@@]1(O)CCC[C@H]1n1c(=O)c(OC(F)F)cc2cnc(NC3CCN(S(=O)(=O)c4ccc(C#N)cc4)CC3)nc21 [Example 6] | ≤ 50
